The source of these data is ChEMBL document CHEMBL4265928, “Design, synthesis, and biological evaluation of 2-(phenoxyaryl)-3-urea derivatives as novel P2Y1 receptor antagonists” (Eur J Med Chem, 2018).

One assay deals with Rattus norvegicus. Kind of assay: Antiplatelet activity in Sprague-Dawley rat platelet rich plasma assessed as inhibition of ADP-induced platelet aggregation at 3 mg/kg, ig after 2 hrs relative to control. The assay is classed as functional. The note with it: po.
Another assay addresses P2Y purinoceptor 1 (Homo sapiens, UniProt P47900). Kind of assay: Antagonist activity at P2Y1 (unknown origin) expressed in human 1321N1 cells assessed as induction of calcium stimulation by fluo-4 dye based assay. The format is functional, cell-based.

Sequence of P2Y purinoceptor 1 (P47900 whole entry): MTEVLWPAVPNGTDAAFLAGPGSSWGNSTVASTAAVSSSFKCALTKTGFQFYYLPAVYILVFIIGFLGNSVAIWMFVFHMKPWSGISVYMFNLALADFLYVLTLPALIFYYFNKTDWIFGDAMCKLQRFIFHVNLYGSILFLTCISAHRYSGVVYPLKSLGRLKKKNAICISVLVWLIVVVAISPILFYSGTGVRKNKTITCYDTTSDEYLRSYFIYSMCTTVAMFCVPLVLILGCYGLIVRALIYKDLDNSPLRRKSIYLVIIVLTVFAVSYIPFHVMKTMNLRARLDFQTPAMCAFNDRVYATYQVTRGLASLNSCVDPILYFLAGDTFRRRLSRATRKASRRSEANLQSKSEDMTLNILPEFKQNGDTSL

A word on the inhibition in vivo: it is the relative decrease from the control value, in per cent. For the compound `CC(C)(C)c1ccccc1Oc1ncccc1NC(=O)Nc1ccc(OC(F)(F)F)cc1`, the inhibition in vivo at 3 mg/kg in the assay on Rattus norvegicus was 67.4%.
In general, IC50 refers to the concentration that inhibits the measured activity by half. As for `Cc1ccc(NC(=O)Nc2ccc(OC(F)(F)F)cc2)c(Oc2ccccc2C(C)(C)C)n1`, the IC50 on P2Y purinoceptor 1 came out at 0.21 µM. In the assay on Rattus norvegicus, the inhibition in vivo at 3 mg/kg worked out at 68.9%.
The like results for `CC(C)(C)c1ccccc1Oc1ncccc1NC(=O)N[C@H]1CC[C@H](C)CC1` were, in that order, 7.05 µM and 57.6%.
As to `COC(=O)c1ccc(NC(=O)Nc2cccnc2Oc2ccccc2C(C)(C)C)s1`, the concentration for half-maximal inhibition (IC50) on P2Y purinoceptor 1 was determined as 12.9 µM.
Consider `CC(C)(C)c1ccccc1Oc1ncccc1NC(=O)NC1CCCC1`, for which the IC50 on P2Y purinoceptor 1 is 2.41 µM.
Same read-out and setting: the figure for `CC1CCCCC1NC(=O)Nc1cccnc1Oc1ccccc1C(C)(C)C` (configuration not stated) is 0.82 µM.
As for `CCOC(=O)c1ccc(NC(=O)Nc2cccnc2Oc2ccccc2C(C)(C)C)s1`, the IC50 on P2Y purinoceptor 1 worked out at 12.5 µM. The inhibition in vivo at 3 mg/kg with Rattus norvegicus was found to be 50.6%.
`CC(C)(C)c1ccccc1Oc1ncccc1NC(=O)NC1C2CC3CC(C2)CC1C3` (configuration not stated): at P2Y purinoceptor 1, the IC50 came to 0.62 µM. Besides, the inhibition in vivo at 3 mg/kg in the assay on Rattus norvegicus turned out to be 26.7%.
In the case of `CCCCNC(=O)Nc1cccnc1Oc1ccccc1C(C)(C)C`, the 50% inhibitory concentration (IC50) on P2Y purinoceptor 1 is 9.98 µM. For the same compound, in the assay on Rattus norvegicus, the inhibition in vivo at 3 mg/kg worked out at 22%.
In the same order, the values of `CC(C)(C)c1ccccc1Oc1ncccc1NC(=O)Nc1ccc(C(=O)OCc2ccccc2)s1` are 7.19 µM and 69.4%.
As to `CC(C)(C)c1ccccc1Oc1ccccc1NC(=O)Nc1ccc(OC(F)(F)F)cc1`, the concentration for half-maximal inhibition (IC50) on P2Y purinoceptor 1 came to 7.53 µM.
